Experimental data reported in patent US8637554B2, “Methods for treating thyroid cancer” (The Trustees of the University of Pennsylvania, priority 2008, dated 2014).
Where “and” joins values, the source holds several entries; their conditions need not be identical. Identical values can stand only once. Entries after “also recorded” stand apart in the source; their conditions may differ.

Key:
Format in all cases: in vivo, human
[1] = test system: solid malignancies (tumor neovasculature); assay: DCE-MRI (Ktr) in CA4P clinical trials
Method: The results in the CA4P trials were variable. In DCE-MRI, the rate constant Ktrans (Ktr), representing the rate of passage of gadolinium from the plasma into the tumor interstitium, is determined. Ktr itself is determined as a function of both tumor blood flow and vascular permeability, thus serving as a marker of the status of the tumor neovasculature.

[2] = test system: metastatic papillary thyroid carcinoma (mPTC); assay: Response by CT and PET scan in two patients with metastatic papillary thyroid carcinoma on sorafenib
Method: Patient 1: A person palpated a right-sided neck mass in August 2004. The patient underwent total thyroidectomy with lymph node dissection and pathology confirmed mPTC in one of eight lymph nodes. They were treated with ^131I and placed on thyroid hormone replacement. In August 2005, an enlarged lymph node was palpated in their neck.
Treatment began on Apr. 18, 2006. Toxicity was assessed at every four weeks and response to treatment was assessed using serial CT and PET scans.
Patient 2: A person presented with a sore throat in March 2002. Their physician noted only right sided cervical lymphadenopathy. […] Thyroidectomy and right neck lymph node dissection removed a 2.5 cm tall-cell PTC with 12 of 49 lymph nodes containing mPTC.
PET scans were obtained on a dedicated whole-body PET scanner (C-PET, Phillips). At FDG injection, patients had fasted for 6 hours and blood glucose levels were less than 150 mg/dL. Image acquisition started 60 min following intravenous administration of FDG at a dose of 1.85 MBq/kg (0.05 mCi/kg) body weight. A transmission scan was obtained for attenuation correction.

[3] = test system: metastatic thyroid carcinoma; assay: Open-label phase II study of oral sorafenib in metastatic thyroid carcinoma: best response by RECIST, PFS/TTP
Source text: Eligible patients were >18 years old with metastatic or unresectable thyroid carcinoma for which curative measures were no longer effective. Patients had evidence of measurable disease by RECIST criteria. All patients enrolled had evidence of disease progression in the year prior to initiation of treatment. Prior radioactive iodine treatments and one prior biologic treatment (kinase inhibitor, vaccine or antibody-based therapy) were allowed, but not within 3 weeks of treatment. […] Pre-menopausal women were required to have a negative pregnancy test and all patients of were required to use contraception.
Patients were ineligible if they had previous exposure to a Ras pathway inhibitor (including trastuzumab, EGFR inhibitors, farnesyl transferase inhibitors or MEK inhibitors) or were unable to swallow and retain oral pills. All patients provided written informed consent prior to enrollment on the trial. The study protocol was approved by the Institutional Review Board of the University of Pennsylvania.
(§1) This was an open-label, single institution phase II study of oral sorafenib in patients with metastatic thyroid carcinoma, including differentiated, poorly differentiated, medullary, and anaplastic subtypes. […] A cycle was defined as 4 weeks. Screening evaluations were completed within 2 weeks prior to the start of study drug, including medical history, demography, review of prior treatment, physical exam, 12-lead EKG, and laboratory evaluations including serum thyroid stimulating hormone (TSH) and thyroglobulin, and urinalysis. Radiological tests to identify target lesions were performed within 4 weeks of the first dose of study drug.
(§2) After beginning treatment, patients were followed at four-week intervals. At each visit, a history and physical examination were performed, and a CBC, chemistry panel, TSH and thyroglobulin drawn. Patients were assessed for new symptoms, compliance with study medications (pill count), and concomitant medications. Dose adjustments were made as needed for toxicity. Response was assessed radiographically after eight and sixteen weeks of treatment and every twelve weeks thereafter.
(§3) The study endpoints of best objective response rate and stable disease were measured based on the findings on computed tomography (CT) or magnetic resonance imaging (MRI) using RECIST. Additional endpoints included best response, duration of response and time to disease progression (TTP) on the basis of RECIST, clinical progression, or death. While TTP was the original endpoint, PFS and TTP were identical in this study, and PFS have been used in this report as it has become the more standard progression endpoint. All responses were confirmed by a study-designated radiologist. Adverse events were graded with the use of Common Terminology Criteria for Adverse Events, version 3.0 (CTCAE v3.0).
This study was designed to exclude the null hypothesis response rate of 5% using a Simon two-stage design; the first stage included 30 patients, with an optional second stage including 25 additional patients if at least one response was observed. The observed response rate was tested against the null rate of 5% using an exact test for binomial proportions. Estimates of PFS (time from beginning on study drug to earlier of progression or death) with associated 95% confidence intervals were obtained using the method of Kaplan and Meier. Comparison of PFS among histological subtypes was conducted using the logrank test. All enrolled patients who received at least one day of treatment were included in this intent-to-treat analysis.
2) Evidence of measurable disease by RECIST criteria 3) Any number of prior radioactive iodine treatments and up to one prior biologic treatment.
Primary Endpoint: Efficacy of sorafenib (objective response rate) in patients with metastatic thyroid carcinoma.
Patients on study were monitored with CT scans every 2 months and PET scans prior to beginning therapy and 4 weeks after starting treatment. […]

[4] = test system: Ki-67; assay: Immunohistochemistry of patient tumor tissue before and on sorafenib: Ki-67
Source text: (§4) Paraffin embedded tumor specimens from the patients' primary surgery and from lymph node biopsies after two weeks (Patient 1) and 17 months on treatment (Patient 2) were obtained. Thin (5 μm) sections from tumor tissue were cut and stained for the proliferation marker Ki-67 (Dakocytomation), and signaling markers p-ERK and p-AKT (Cell Signaling Technology) which are downstream indicators of BRAF and VEGFR2 activity. P-ERK is good reporter for BRAF activity, while p-AKT likely reflects signaling through several pathways including VEGFR. Slides were counterstained with hematoxylin and mounted in vectashield (Vector Labs). Two independent, blinded pathologists scored the slides based on intensity of stain and percent of cells staining positively.
(§5) Proliferation and cellular signaling in the tumor cell (TC) and the endothelial cell (EC) compartments were evaluated by immunohistochemistry (IHC).

[5] = test system: serum thyroglobulin; assay: Serum thyroglobulin (sTG) monitoring in patients on sorafenib
Source text: as §1, §2
sTG levels are monitored monthly as part of the clinical trial. As sTG can rise due inadequate suppression of TSH, sTG levels are analyzed in the context of the serum TSH. In patients where […]. In addition, high levels of anti sTG antibodies can render the sTG levels un-interpretable. To date one patient has TSH that was not adequately controlled, and a second patient with anti sTG antibodies in excess of 1000 IU/ml. These patients are excluded from this analysis. sTG levels are correlated with clinical outcomes, and results of imaging and tissue analysis as described in the section on statistical analysis below.

[6] = test system: p-ERK; assay: Immunohistochemistry of patient tumor tissue before and on sorafenib: p-ERK
Source text: as §4, §5

[7] = test system: p-AKT; assay: Immunohistochemistry of patient tumor tissue before and on sorafenib: p-AKT
Source text: as §4, §5

[8] = Phase II study of sorafenib: adverse events (CTCAE v3.0), dose changes, TSH
Source text: as §1, §2, §3

[9] = Table 3 summary, 42 total / 31 evaluable patients
[10] = first 30 patients as of May 25, 2008, follow-up Kaplan-Meier analysis
[11] = first 30 patients, intention-to-treat
[12] = first 30 patients, intention-to-treat, 400 mg orally twice a day
[13] = Patient 2, after 17 months of treatment
[14] = Patient 1, after 2 weeks of treatment

COc1ccc(/C=C\c2cc(OC)c(OC)c(OC)c2)cc1OP(=O)(O)O [CA4P]
Ktr response ([1]; certain patients, larger pre-treatment tumor Ktr values, incl. two with thyroid cancer): Strong Ktr responses | Ktr response ([1]; other patients): little or no effect

CNC(=O)c1cc(Oc2ccc(NC(=O)Nc3ccc(Cl)c(C(F)(F)F)c3)cc2)ccn1 [sorafenib]
Progression-free survival ([2]; Patient 1): ≥ 1.3 years | Decrease of target lesions (PR) ([2]; Patient 1, after 12 months): 30% | Decrease in size of lung lesions by RECIST ([2]; Patient 1, after 12 weeks): 25% | Progression-free survival ([2]; Patient 2): ≥ 3.7 years | Maintained partial response ([2]; Patient 2, after 3.7 years on sorafenib): 70% | Decrease of largest target lesion ([2]; Patient 2, after 12 weeks): 52% | Decrease of largest target lesion ([2]; Patient 2, continued shrinkage after 20 weeks): 72% | Clinical benefit (PR + SD) rate [3, 9]: 72% | Clinical benefit (PR + SD), number of patients [3, 9]: 13 | Partial response (≧30%) rate [3, 9]: 24% | Partial response (≧30%), number of patients [3, 9]: 10 | Stable disease rate [3, 9]: 48% | Stable disease, number of patients [3, 9]: 19 | Overall median progression free survival ([3]; all 30 patients, Kaplan-Meier, analysis four months after last patient started): 79 weeks and 79.0 weeks | DTC patients median progression free survival ([3]; differentiated thyroid cancers alone, Kaplan-Meier): 84 weeks | Largest decrease in target lesions by RECIST (upper end of range of responses) ([3]; first 30 patients): 80% | Median time to progression / PFS, all patients [3, 10]: 72 weeks | Median time to progression / PFS, differentiated thyroid cancers (DTC) [3, 10]: 84 weeks | Clinical benefit (PR + SD), number of patients [3, 11]: 23 | Partial response (PR, ≧30%), number of patients [3, 11]: 7 | Progressive disease as best response, number of patients [3, 11]: 2 | Progressive disease as best response, rate [3, 11]: (3%) | Stable disease (SD), number of patients [3, 11]: 16 | Best response by RECIST: complete response rate [3, 12]: (0%) | Best response by RECIST: complete response, number of patients [3, 12]: 0 | Decrease in size of visible shoulder nodule ([3]; patient with poorly differentiated thyroid cancer, at 4 weeks, before progression): 50% | CT response of target lesions, lung metastases ([3]; person, follicular thyroid cancer, after 16 weeks, FIG. 3A): partial response | CT burden of lung disease ([3]; person, papillary thyroid cancer, miliary lung metastases, after 33 weeks, FIG. 3B): marked improvement | Disease symptoms (cough, dyspnea on exertion) ([3]; two patients of FIG. 3, within the first six months of treatment): complete resolution of their symptoms | Ki-67 positive cells ([4]; Patient 1, tissue after two weeks of treatment (pre-treatment 1% of TCs)): less than 1% | Ki-67 positive TCs versus pre-treatment [4, 13]: no change in the number of positive cells | Patients with marked response in serum thyroglobulin levels ([5]; Seventeen of 19 patients with serial levels): 95% | Thyroglobulin levels ([5]; approximately 15 new patients enrolled since November 2008, iodine non-avid metastatic thyroid cancer): increased | Iodine uptake ([5]; inferred from thyroglobulin levels, iodine non-avid metastatic thyroid cancer): effective in increasing the iodine uptake | Course of sTG early on treatment ([5]; most patients, first two to four months): falls precipitously; also recorded: dropped precipitously | Initial decline of serum thyroglobulin (sTG) ([5]; patient 5, stably suppressed TSH, FIG. 4): 25 % baseline levels | Mean decrease in serum thyroglobulin ([5]; within four months of starting treatment): 70% | p-ERK staining in ECs [6, 14]: no longer detected | p-ERK staining in TCs [6, 14]: decreased | p-ERK expression in ECs [6, 13]: markedly increased | p-ERK staining in TCs [6, 13]: unchanged | p-AKT staining in ECs [7, 14]: decreased | p-AKT staining in TCs [7, 14]: did not show any change | p-AKT staining in ECs and TCs ([7]; Patient 2, at 17 months): slight increase | Patients requiring drug holidays due to adverse events ([8]; 30 patients): 63% | Patients who discontinued treatment due to adverse events ([8]; 30 patients): 20% | Patients who experienced some weight loss ([8]; 30 patients): 60% | Patients with doses reduced to control toxicities ([8]; 30 patients): 47% | Toxicity leading to withdrawal, single patients ([8]; CTCAE grade): grade 3 rash; also recorded: grade 2 fatigue; also recorded: grade 4 liver toxicity | Severity of treatment-related adverse events ([8]; CTCAE v3.0): predominantly of grade 1 or 2 | Patients WD due to toxicity, number ([8]; Table 3 summary, 42 total patients): 2 | Outcome of LFT elevations after eight weeks, one patient ([8]; despite dose reductions and cessation): died of liver failure | Patients with rise in serum TSH to levels greater than 0.10 mIU/L ([8]; while on sorafenib, 30 patients): 33%
